Values after ≈ are worked out from the molar mass of the structure shown. Read-outs that look alike come from different tables or passages of the source. Non-standard residues stand in square brackets, D forms with d. Residues, ends and D or L forms follow the SMILES beside them. No end group written: not given here.
Experiments:
[1] = system: S. aureus; format: cell-based, Staphylococcus aureus (NBRC100910)
Procedure: (§1) S. aureus (NBRC100910), E. coli W3110 (NBRC12713), E. hirae (NBRC3181), C. albicans (NBRC1385), and S. Typhimurium 14028s (ATCC14028)[2] were used in this study. S. aureus, E. coli, and S. Typhimurium were grown at 37 °C with aeration in Muller-Hinton II medium (BD Biosciences). E. hirae was grown at 37 °C in LB medium (Nacalai Tesque, Inc.) containing 0.5% glucose (w/v). C. albicans was grown at room temperature with aeration in YM medium (BD Biosciences). All experiments were conducted using bacterial cells and C. albicans in the logarithmic-phase of growth.
(§2) Bacterial suspensions in Muller-Hinton II medium were adjusted to an optical density of 550 nm (OD550) = 0.0011. C. albicans suspensions in YM medium were adjusted to OD650 = 0.033. Peptides were serially diluted in 10 mM phosphate buffer (pH 6.0) containing 130 mM sodium chloride, 0.2% bovine serum albumin, and 2.56% dimethyl sulfoxide. The peptide solution (100 μl) was mixed with 100 μl of bacteria or C. albicans suspensions. Bacterial cultures were incubated for one day at 37 °C. C. albicans cultures were incubated for two days at room temperature. Cell growth was monitored optically and the MIC was determined.

[2] = system: S. aureus; test: Inhibition of antimicrobial activity by bacterial cell wall components; format: cell-based, Staphylococcus aureus; conditions: Kn2–7 6.25 μg/ml, Mastoparan M 8 μg/ml, 10 min
Procedure: (§3) Bacteria and C. albicans were suspended in growth medium. Peptides suspended in dimethyl sulfoxide were serially diluted in 10 mM phosphate buffer (pH 6.0) containing 130 mM sodium chloride, 0.2% bovine serum albumin as described previously. In order to examine the effects of bovine serum albumin on the assay, 10 mM phosphate buffer (pH 6.0) containing 130 mM sodium chloride, was used for the dilution of peptides. Peptide solution (500 μl) was added to 500 μl of bacteria suspensions and then the mixture was incubated at 37 °C for 10 min. In order to examine the effects of culture medium components on the assay, bacteria suspension was prepared with 10 mM phosphate buffer (pH 6.0) containing 130 mM sodium chloride. Alternatively, 500 μl of peptide solution was added to 500 μl of C. albicans suspensions and the mixture was incubated at room temperature for 10 min. The inhibitory effects of the bacterial components were analyzed by incubating 450 μl of S. aureus suspension with 500 μl of peptide solution plus 50 μl of inhibitor samples at 37 °C for 10 min. Then, the peptide/bacteria suspensions were diluted and plated onto LB agar, LB agar containing 0.5% glucose, or YM agar. After cultivation of the plates, colony forming units (CFU) in the peptide/bacteria suspension were calculated based on the average of triplicate plates.
Peptidoglycan (120 μg) prepared from S. aureus was added to 1 mg/ml of lysozyme in phosphate buffered saline (150 μl)[33]. Peptidoglycan without lysozyme and lysozyme without peptidoglycan were also prepared as controls. Samples were incubated overnight at 37 °C, and then incubated at 100 °C for 15 min to inactivate lysozyme. For heat-inactivation of peptidoglycan, 600 μg of peptidoglycan suspended in water (300 μl) was incubated at 100 °C for 15 min. The samples were sonicated for 10 sec at setting 1 using a Branson sonifier model S-150D. These samples were used as inhibitor samples for antimicrobial activity assays.

[3] = system: S. aureus; test: Assay for membrane permeability (ethidium influx); format: cell-based, Staphylococcus aureus; conditions: 20 μg/ml peptide, fluorescence for 180 sec, 10 mM phosphate buffer pH 6.0, 130 mM NaCl, 0.2% BSA
Procedure: To examine membrane permeability, ethidium influx rates were examined as previously described. S. aureus suspension cultures were adjusted to an OD600 of 0.4 in 10 mM phosphate buffer (pH 6.0) containing 130 mM sodium chloride and 0.2% bovine serum albumin. Then, peptide in dimethyl sulfoxide (8 μl) or dimethyl sulfoxide alone (8 μl) was added to 2 ml of S. aureus suspensions. At 30 sec after the addition of peptide, ethidium bromide was added to a final concentration of 5 μg/ml, and fluorescence of the ethidium-nucleic acid complex was monitored using a RF-5300PC spectrofluorometer (Shimadzu). Excitation and emission wavelengths were 545 nm with 5 nm slits and 600 nm with 10 nm slits, respectively.

[4] = system: S. aureus; test: Assay for antimicrobial activity (10 min exposure, CFU); format: cell-based, Staphylococcus aureus (NBRC100910); conditions: 10 min at 37 °C, standard assay with culture medium and 0.2% BSA, triplicate plates
Procedure: as §1, §3

[5] = system: E. coli; format: cell-based, Escherichia coli W3110 (NBRC12713); conditions: pH 6
Procedure: as §1, §2

[6] = system: S. aureus; test: Peptide degradation in the S. aureus assay mixture (SDS-PAGE, Ruby stain); format: in vitro ADME, Staphylococcus aureus; conditions: 15 μg/ml peptide with S. aureus, 10 min at 37 °C, antimicrobial assay mixture, Ruby protein gel stain
[7] = system: C. albicans; format: cell-based, Candida albicans (NBRC1385)
Procedure: as §1, §2

[8] = system: Gram-positive bacteria; conditions: cited from earlier work
From the text: Sapecin B is an antimicrobial peptide that was originally isolated from the culture medium of an embryonic cell line, NIH-Sape-4, derived from Sarcophaga peregrine (flesh fly). […] Two other related proteins, sapecin and sapecin C, were also isolated from culture medium of NIH-Sape-4[13][14][15]. Sapecin B has significant sequence similarity to a scorpion venom toxin, charybdotoxin[13][16]. Structural comparison of sapecin B and charybdotoxin identified the undecapeptide RSLCLLHCRLK-NH2, which corresponds to amino acid residues 7 to 1 ...

[9] = S. aureus, Muller-Hinton II medium mixed 1:1 with peptide in 10 mM phosphate buffer pH 6.0, 130 mM NaCl, 0.2% BSA, 2.56% DMSO, one day at 37 °C, growth monitored optically

Compound: CC[C@@H](C)[C@@H](NC(=O)[C@H](N)Cc1ccccc1)C(=O)N[C@H](CCCCN)C(=O)N[C@H](CCCNC(=N)N)C(=O)N[C@@H](C(=O)N[C@H](C)C(=O)N[C@H](CCCNC(=N)N)C(=O)N[C@H](CC(C)C)C(=O)N[C@H](CC(C)C)C(=O)N[C@H](CCCNC(=N)N)C(=O)N[C@H](CCCCN)C(=O)N[C@@H](C(=O)N[C@H](Cc1ccccc1)C(N)=O)[C@H](C)CC)[C@H](C)CC [D-form FIKRIARLLRKIF-NH2, reference compound] (H-[dF][dI][dK][dR][dI][dA][dR][dL][dL][dR][dK][dI][dF]-NH2; N-terminus assumed)
- MIC [1, 9]: 4 µg/mL (≈ 2.39 µM)
- inhibitory effect of S. aureus peptidoglycan on the antimicrobial activity [2]: significant inhibitory effects

Compound: CC[C@@H](C)[C@@H](NC(=O)CNC(=O)[C@@H](CO)NC(=O)[C@@H](CC(C)C)NC(=O)[C@H](NC(=O)[C@@H](CCCNC(=N)N)NC(=O)CNC(=O)[C@H](NC(=O)[C@@H](CC(C)C)NC(=O)[C@H]1CCCN1C(=O)[C@@H](CC(C)C)NC(=O)[C@H](N)Cc1ccccc1)[C@H](C)CC)C(C)C)C(=O)N[C@H](CC(C)C)C(N)=O [D-form FLPLIGRVLSGIL-NH2, reference compound] (H-[dF][dL][dP][dL][dI]G[dR][dV][dL][dS]G[dI][dL]-NH2; N-terminus assumed)
- MIC [1, 9]: 8 µg/mL (≈ 5.73 µM)

Compound: CC[C@@H](C)[C@@H](N)C(=O)N[C@H](CC(N)=O)C(=O)N[C@H](CC(C)C)C(=O)N[C@H](CCCCN)C(=O)N[C@H](C)C(=O)N[C@@H](C(=O)N[C@H](C)C(=O)N[C@H](C)C(=O)N[C@H](CC(C)C)C(=O)N[C@H](C)C(=O)N[C@H](CCCCN)C(=O)N[C@H](CCCCN)C(=O)N[C@H](CC(C)C)C(=O)N[C@H](CC(C)C)C(N)=O)[C@H](C)CC [D-form INLKAIAALAKKLL-NH2, reference compound] (H-[dI][dN][dL][dK][dA][dI][dA][dA][dL][dA][dK][dK][dL][dL]-NH2)
- MIC [1, 9]: 16 µg/mL (≈ 10.8 µM)
- ethidium bromide influx rate [3]: increased ethidium bromide influx rates to a similar extent
- inhibitory effect of S. aureus peptidoglycan on the antimicrobial activity [2]: weak inhibitory effects

Compound: CC(C)C[C@@H](NC(=O)[C@H](N)CCCCN)C(=O)N[C@H](CCCCN)C(=O)N[C@H](CC(C)C)C(=O)N[C@H](CC(C)C)C(=O)N[C@H](CC(C)C)C(=O)N[C@H](CCCCN)C(=O)N[C@H](CC(C)C)C(=O)N[C@H](CCCCN)C(N)=O [D-form KLKLLLKLK-NH2] (H-[dK][dL][dK][dL][dL][dL][dK][dL][dK]-NH2; N-terminus assumed)
- fold by which the MIC of the D-form is lower than that of the L-form ([1]; S. aureus): more than 32 fold
- MIC [1, 9]: 4 µg/mL (≈ 3.65 µM)
- antimicrobial activity (CFU), D-form compared with L-form [4]: higher

Compound: FIKRIARLLRKIF-NH2 [L-form FIKRIARLLRKIF-NH2, reference compound]
- MIC [1, 9]: 4 µg/mL

Compound: FLPLIGRVLSGIL-NH2 [L-form FLPLIGRVLSGIL-NH2, reference compound]
- MIC [1, 9]: 8 µg/mL

Compound: INLKAIAALAKKLL-NH2 [L-form INLKAIAALAKKLL-NH2, reference compound]
- MIC [1, 9]: 16 µg/mL

Compound: KLKLLLKLK-NH2 [L-form KLKLLLKLK-NH2]
- MIC [1, 9]: >128 µg/mL

Compound: KLKLLLLLKLK-NH2 [L-form KLKLLLLLKLK-NH2]
- MIC [5]: 16 µg/mL
- specific degradation of the peptide [6]: specific degradation of the L-form peptide was not observed
- MIC ([1]; pH 6): 16 µg/mL
- MIC [7]: 64 µg/mL

Compound: RSLCLLHCRLK-NH2 [undecapeptide, amino acid residues 7 to 17 of sapecin B with C-terminal amidation]
- antimicrobial activity [8]: significant antimicrobial activity

— paper PMC5338256, “D-form KLKLLLLLKLK-NH2 peptide exerts higher antimicrobial properties than its L-form counterpart via an association with bacterial cell wall components” (Scientific Reports, 2017)
